ChEMBL document CHEMBL5154747, “Discovery of new carbonic anhydrase IX inhibitors as anticancer agents by toning the hydrophobic and hydrophilic rims of the active site to encounter the dual-tail approach” (Eur J Med Chem, 2022)

Legend:
BT-549 = test: Anticancer activity against human BT-549 cells assessed as cell growth inhibition incubated for 48 hrs by SRB assay; type: functional; conditions: read-out: LC50 (the source's name)
HCC 2998 [1] = test: Anticancer activity against human HCC 2998 cells assessed as cell growth inhibition incubated for 48 hrs by SRB assay; type: functional
A549 = test: Anticancer activity against human A549 cells assessed as cell growth inhibition incubated for 48 hrs by SRB assay; type: functional
HCC 2998 [2] = test: Cytotoxicity against human HCC 2998 cells assessed as inhibition of cell viability incubated for 72 hrs under hypoxia condition by MTT assay; type: functional, cell-based; conditions: HCC 2998, 72 h
NCI-H322M = test: Anticancer activity against human NCI-H322M cells assessed as cell growth inhibition incubated for 48 hrs by SRB assay; type: functional; conditions: read-out: LC50 (the source's name)
CCRF-CEM = test: Anticancer activity against human CCRF-CEM cells assessed as cell growth inhibition incubated for 48 hrs by SRB assay; type: functional
UO-31 = test: Anticancer activity against human UO-31 cells assessed as cell growth inhibition incubated for 48 hrs by SRB assay; type: functional; conditions: read-out: LC50 (the source's name)
M14 = test: Anticancer activity against human M14 cells assessed as cell growth inhibition incubated for 48 hrs by SRB assay; type: functional
SR = test: Anticancer activity against human SR cells assessed as cell growth inhibition incubated for 48 hrs by SRB assay; type: functional; conditions: read-out: LC50 (the source's name)
IGROV-1 = test: Anticancer activity against human IGROV-1 cells assessed as cell growth inhibition incubated for 48 hrs by SRB assay; type: functional; conditions: read-out: LC50 (the source's name)
SK-MEL-2 = test: Anticancer activity against human SK-MEL-2 cells assessed as cell growth inhibition incubated for 48 hrs by SRB assay; type: functional; conditions: read-out: LC50 (the source's name)
NCI-H226 = test: Anticancer activity against human NCI-H226 cells assessed as cell growth inhibition incubated for 48 hrs by SRB assay; type: functional; conditions: read-out: LC50 (the source's name)
NCI-H522 = test: Anticancer activity against human NCI-H522 cells assessed as cell growth inhibition incubated for 48 hrs by SRB assay; type: functional; conditions: read-out: LC50 (the source's name)
RXF 393 [3] = test: Anticancer activity against human RXF 393 cells assessed as cell growth inhibition incubated for 48 hrs by SRB assay; type: functional; conditions: read-out: LC50 (the source's name)
PC-3 = test: Anticancer activity against human PC-3 cells assessed as cell growth inhibition incubated for 48 hrs by SRB assay; type: functional; conditions: read-out: LC50 (the source's name)
SK-MEL-28 = test: Anticancer activity against human SK-MEL-28 cells assessed as cell growth inhibition incubated for 48 hrs by SRB assay; type: functional; conditions: read-out: LC50 (the source's name)
MDA-MB-435 = test: Anticancer activity against human MDA-MB-435 cells assessed as cell growth inhibition incubated for 48 hrs by SRB assay; type: functional
SK-MEL-5 [4] = test: Cytotoxicity against human SK-MEL-5 cells assessed as inhibition of cell viability incubated for 72 hrs under hypoxia condition by MTT assay; type: functional, cell-based; conditions: SK-MEL-5, 72 h
RXF 393 [5] = test: Cytotoxicity against human RXF 393 cells assessed as inhibition of cell viability incubated for 72 hrs under hypoxia condition by MTT assay; type: functional, cell-based; conditions: RXF 393, 72 h
U-251 = test: Anticancer activity against human U-251 cells assessed as cell growth inhibition incubated for 48 hrs by SRB assay; type: functional
OVCAR-5 = test: Anticancer activity against human OVCAR-5 cells assessed as cell growth inhibition incubated for 48 hrs by SRB assay; type: functional; conditions: read-out: LC50 (the source's name)
NCI-H23 = test: Anticancer activity against human NCI-H23 cells assessed as cell growth inhibition incubated for 48 hrs by SRB assay; type: functional
SK-MEL-5 [6] = test: Anticancer activity against human SK-MEL-5 cells assessed as cell growth inhibition incubated for 48 hrs by SRB assay; type: functional
MDA-MB-468 = test: Anticancer activity against human MDA-MB-468 cells assessed as cell growth inhibition incubated for 48 hrs by SRB assay; type: functional; conditions: read-out: LC50 (the source's name)
NCI-H460 = test: Anticancer activity against human NCI-H460 cells assessed as cell growth inhibition incubated for 48 hrs by SRB assay; type: functional
EKVX = test: Anticancer activity against human EKVX cells assessed as cell growth inhibition incubated for 48 hrs by SRB assay; type: functional; conditions: read-out: LC50 (the source's name)
HCT-15 = test: Anticancer activity against human HCT-15 cells assessed as cell growth inhibition incubated for 48 hrs by SRB assay; type: functional
Malme-3M = test: Anticancer activity against human Malme-3M cells assessed as cell growth inhibition incubated for 48 hrs by SRB assay; type: functional
CAKI-1 = test: Anticancer activity against human CAKI-1 cells assessed as cell growth inhibition incubated for 48 hrs by SRB assay; type: functional
OVCAR-3 = test: Anticancer activity against human OVCAR-3 cells assessed as cell growth inhibition incubated for 48 hrs by SRB assay; type: functional
COLO 205 = test: Anticancer activity against human COLO 205 cells assessed as cell growth inhibition incubated for 48 hrs by SRB assay; type: functional
HL-60(TB) = test: Anticancer activity against human HL-60(TB) cells assessed as cell growth inhibition incubated for 48 hrs by SRB assay; type: functional
HOP-92 = test: Anticancer activity against human HOP-92 cells assessed as cell growth inhibition incubated for 48 hrs by SRB assay; type: functional; conditions: read-out: LC50 (the source's name)
SF-295 = test: Anticancer activity against human SF-295 cells assessed as cell growth inhibition incubated for 48 hrs by SRB assay; type: functional; conditions: read-out: LC50 (the source's name)
SF-539 = test: Anticancer activity against human SF-539 cells assessed as cell growth inhibition incubated for 48 hrs by SRB assay; type: functional
SNB-19 = test: Anticancer activity against human SNB-19 cells assessed as cell growth inhibition incubated for 48 hrs by SRB assay; type: functional; conditions: read-out: LC50 (the source's name)
NCI/ADR-RES = test: Anticancer activity against human NCI/ADR-RES cells assessed as cell growth inhibition incubated for 48 hrs by SRB assay; type: functional
KM12 = test: Anticancer activity against human KM12 cells assessed as cell growth inhibition incubated for 48 hrs by SRB assay; type: functional
ACHN = test: Anticancer activity against human ACHN cells assessed as cell growth inhibition incubated for 48 hrs by SRB assay; type: functional
MDA-MB-231 = test: Anticancer activity against human MDA-MB-231 cells assessed as cell growth inhibition incubated for 48 hrs by SRB assay; type: functional
K562 = test: Anticancer activity against human K562 cells assessed as cell growth inhibition incubated for 48 hrs by SRB assay; type: functional; conditions: read-out: LC50 (the source's name)
UACC-62 = test: Anticancer activity against human UACC-62 cells assessed as cell growth inhibition incubated for 48 hrs by SRB assay; type: functional
SN12C = test: Anticancer activity against human SN12C cells assessed as cell growth inhibition incubated for 48 hrs by SRB assay; type: functional
MOLT-4 = test: Anticancer activity against human MOLT-4 cells assessed as cell growth inhibition incubated for 48 hrs by SRB assay; type: functional
HCT-116 = test: Anticancer activity against human HCT-116 cells assessed as cell growth inhibition incubated for 48 hrs by SRB assay; type: functional
HT-29 = test: Anticancer activity against human HT-29 cells assessed as cell growth inhibition incubated for 48 hrs by SRB assay; type: functional
A498 = test: Anticancer activity against human A498 cells assessed as cell growth inhibition incubated for 48 hrs by SRB assay; type: functional
SW-620 = test: Anticancer activity against human SW-620 cells assessed as cell growth inhibition incubated for 48 hrs by SRB assay; type: functional
HOP-62 = test: Anticancer activity against human HOP-62 cells assessed as cell growth inhibition incubated for 48 hrs by SRB assay; type: functional
MCF7 = test: Anticancer activity against human MCF7 cells assessed as cell growth inhibition incubated for 48 hrs by SRB assay; type: functional
DU-145 = test: Anticancer activity against human DU-145 cells assessed as cell growth inhibition incubated for 48 hrs by SRB assay; type: functional
TK-10 = test: Anticancer activity against human TK-10 cells assessed as cell growth inhibition incubated for 48 hrs by SRB assay; type: functional; conditions: read-out: LC50 (the source's name)
786-0 = test: Anticancer activity against human 786-0 cells assessed as cell growth inhibition incubated for 48 hrs by SRB assay; type: functional
RPMI-8226 = test: Anticancer activity against human RPMI-8226 cells assessed as cell growth inhibition incubated for 48 hrs by SRB assay; type: functional
[7] = read-out: LC50 (the source's name)

SMILES: O=c1[nH]cc(F)c(=O)[nH]1 [FLUOROURACIL]
- CC50 (BT-549): > 100000 nM
- GI50 (HCC 2998 [1]): 50 nM
- CC50 (HCC 2998 [1]; [7]): > 100000 nM
- GI50 (A549): 180 nM
- IC50 (HCC 2998 [2]): 12600 nM
- CC50 (NCI-H322M): > 100000 nM
- GI50 (CCRF-CEM): 9970 nM
- CC50 (CCRF-CEM; [7]): > 100000 nM
- CC50 (UO-31): > 100000 nM
- GI50 (M14): 980 nM
- CC50 (M14; [7]): > 100000 nM
- CC50 (SR): > 100000 nM
- CC50 (IGROV-1): > 100000 nM
- CC50 (SK-MEL-2): > 100000 nM
- CC50 (NCI-H226): > 100000 nM
- CC50 (NCI-H522): > 100000 nM
- CC50 (RXF 393 [3]): > 100000 nM
- CC50 (PC-3): > 100000 nM
- CC50 (SK-MEL-28): > 100000 nM
- GI50 (MDA-MB-435): 70 nM
- IC50 (SK-MEL-5 [4]): 15300 nM
- IC50 (RXF 393 [5]): 28200 nM
- GI50 (U-251): 920 nM
- CC50 (U-251; [7]): > 100000 nM
- CC50 (OVCAR-5): > 100000 nM
- GI50 (NCI-H23): 330 nM
- CC50 (NCI-H23; [7]): > 100000 nM
- GI50 (SK-MEL-5 [6]): 460 nM
- CC50 (MDA-MB-468): > 100000 nM
- GI50 (NCI-H460): 50 nM
- CC50 (NCI-H460; [7]): > 100000 nM
- CC50 (EKVX): > 100000 nM
- GI50 (HCT-15): 110 nM
- CC50 (HCT-15; [7]): > 100000 nM
- GI50 (Malme-3M): 50 nM
- CC50 (Malme-3M; [7]): > 100000 nM
- GI50 (CAKI-1): 70 nM
- CC50 (CAKI-1; [7]): > 100000 nM
- GI50 (OVCAR-3): 10 nM
- GI50 (COLO 205): 150 nM
- CC50 (COLO 205; [7]): > 100000 nM
- GI50 (HL-60(TB)): 2300 nM
- CC50 (HL-60(TB); [7]): > 100000 nM
- CC50 (HOP-92): > 100000 nM
- CC50 (SF-295): > 100000 nM
- GI50 (SF-539): 60 nM
- CC50 (SF-539; [7]): > 100000 nM
- CC50 (SNB-19): > 100000 nM
- GI50 (NCI/ADR-RES): 310 nM
- CC50 (NCI/ADR-RES; [7]): > 100000 nM
- GI50 (KM12): 210 nM
- CC50 (KM12; [7]): > 100000 nM
- GI50 (ACHN): 270 nM
- CC50 (ACHN; [7]): > 100000 nM
- GI50 (MDA-MB-231): 6600 nM
- CC50 (K562): > 100000 nM
- GI50 (UACC-62): 520 nM
- GI50 (SN12C): 490 nM
- GI50 (MOLT-4): 350 nM
- CC50 (MOLT-4; [7]): > 100000 nM
- GI50 (HCT-116): 220 nM
- GI50 (HT-29): 170 nM
- CC50 (HT-29; [7]): > 100000 nM
- GI50 (A498): 350 nM
- CC50 (A498; [7]): > 100000 nM
- GI50 (SW-620): 920 nM
- CC50 (SW-620; [7]): > 100000 nM
- GI50 (HOP-62): 390 nM
- CC50 (HOP-62; [7]): > 100000 nM
- GI50 (MCF7): 70 nM
- GI50 (DU-145): 360 nM
- CC50 (TK-10): > 100000 nM
- GI50 (786-0): 720 nM
- CC50 (786-0; [7]): > 100000 nM
- GI50 (RPMI-8226): 40 nM
